Row | SMILES | melting point
1 | Cc1cccc(-c2nc3cccnn3c2-c2ccnc(NC(=O)c3ccccc3F)c2)c1 [Example Compound 20-5, 2-fluoro-N-{4-[2-(3-methylphenyl)imidazo[1,2-b]pyridazin-3-yl]pyridin-2-yl}benzamide] | 180 to 181 °C
2 | CC(=O)Nc1cc(-c2c(-c3cccc(C)c3)nc3cccnn23)ccn1 [Example Compound 20-7, N-{4-[2-(3-methylphenyl)imidazo[1,2-b]pyridazin-3-yl]pyridin-2-yl}acetamide] | 227 to 228 °C
3 | CCC(=O)Nc1cc(-c2c(-c3cccc(C)c3)nc3cccnn23)ccn1 [Example Compound 20-9, N-{4-[2-(3-methylphenyl)imidazo[1,2-b]pyridazin-3-yl]pyridin-2-yl}propanamide] | 138 to 139 °C
4 | COc1ccc(CC(=O)Nc2cc(-c3c(-c4cccc(C)c4)nc4cccnn34)ccn2)cc1 [Example Compound 20-12, 2-(4-methoxyphenyl)-N-{4-[2-(3-methylphenyl)imidazo[1,2-b]pyridazin-3-yl]pyridin-2-yl}acetamide] | 213 to 214 °C
5 | COc1ccc(C(=O)Nc2cc(-c3c(-c4cccc(Cl)c4)nc4cccnn34)ccn2)cc1 [Example Compound 21-3, N-{4-[2-(3-chlorophenyl)imidazo[1,2-b]pyridazin-3-yl]pyridin-2-yl}-4-methoxybenzamide] | 223 to 224 °C
6 | CCC(=O)Nc1cc(-c2c(-c3cccc(Cl)c3)nc3cccnn23)ccn1 [Example Compound 21-7, N-{4-[2-(3-chlorophenyl)imidazo[1,2-b]pyridazin-3-yl]pyridin-2-yl}propanamide] | 192 to 193 °C
7 | Cc1cc(-c2nc3cccnn3c2-c2ccnc(NC(=O)c3ccc(Cl)cc3)c2)ccc1F [Example Compound 21-17, 4-chloro-N-{4-[2-(4-fluoro-3-methylphenyl)imidazo[1,2-b]pyridazin-3-yl]pyridin-2-yl}benzamide] | 207 to 209 °C
8 | CCC(=O)Nc1cc(-c2c(-c3ccc(F)c(C)c3)nc3cccnn23)ccn1 [Example Compound 21-18, N-{4-[2-(4-fluoro-3-methylphenyl)imidazo[1,2-b]pyridazin-3-yl]pyridin-2-yl}propanamide] | 166 to 167 °C
9 | CCC(=O)Nc1cc(-c2c(-c3ccc(Cl)cc3)nc3cccnn23)ccn1 [Example Compound 21-28, N-{4-[2-(4-chlorophenyl)imidazo[1,2-b]pyridazin-3-yl]pyridin-2-yl}propanamide] | 204 to 205 °C
10 | Cc1cccc(-c2nc3cccnn3c2-c2ccnc(N(C(=O)C3CC3)C(=O)C3CC3)c2)c1 [Example Compound 23-1, N-(cyclopropylcarbonyl)-N-{4-[2-(3-methylphenyl)imidazo[1,2-b]pyridazin-3-yl]pyridin-2-yl}cyclopropanecarboxamide] | 173 to 175 °C
11 | Cc1cccc(NC(=O)Nc2cc(-c3c(-c4cccc(C)c4)nc4cccnn34)ccn2)c1 [Example Compound 27-2, N-(3-methylphenyl)-N′-{4-[2-(3-methylphenyl)imidazo[1,2-b]pyridazin-3-yl]pyridin-2-yl}urea] | 202 to 203 °C
12 | CCNC(=O)Nc1cc(-c2c(-c3cccc(C)c3)nc3cccnn23)ccn1 [Example Compound 27-4, N-ethyl-N′-(4-[2-(3-methylphenyl)imidazo[1,2-b]pyridazin-3-yl]pyridin-2-yl)urea] | 212 to 213 °C
13 | Cc1cccc(-c2nc3cccnn3c2-c2ccnc(NC(=O)NC(C)C)c2)c1 [Example Compound 27-6, N-isopropyl-N′-{4-[2-(3-methylphenyl)imidazo[1,2-b]pyridazin-3-yl]pyridin-2-yl}urea] | 193 to 195 °C
14 | CCCNC(=O)Nc1cc(-c2c(-c3ccc(F)c(C)c3)nc3cccnn23)ccn1 [Example Compound 28-4, N-{4-[2-(4-fluoro-3-methylphenyl)imidazo[1,2-b]pyridazin-3-yl]pyridin-2-yl}-N′-propylurea] | 231 to 232 °C
15 | Cc1cc(-c2nc3cccnn3c2-c2ccnc(NC(=O)NC3CCCCC3)c2)ccc1F [Example Compound 28-6, N-cyclohexyl-N′-{4-[2-(4-fluoro-3-methylphenyl)imidazo[1,2-b]pyridazin-3-yl]pyridin-2-yl}urea] | 229 to 230 °C
16 | CCNC(=O)Nc1cc(-c2c(-c3cccc(Cl)c3)nc3cccnn23)ccn1 [Example Compound 28-7, N-{4-[2-(3-chlorophenyl)imidazo[1,2-b]pyridazin-3-yl]pyridin-2-yl}-N′-ethylurea] | 230 to 231 °C

Row | SMILES | melting point
17 | CCNC(=O)Nc1cc(-c2c(-c3ccc(Cl)cc3)nc3cccnn23)ccn1 [Example Compound 28-8, N-{4-[2-(4-chlorophenyl)imidazo[1,2-b]pyridazin-3-yl]pyridin-2-yl}-N′-ethylurea] | 223 to 224 °C
18 | CCCNC(=O)Nc1cc(-c2c(-c3ccc(F)cc3)nc3cccnn23)ccn1 [Example Compound 28-9, N-{4-[2-(4-fluorophenyl)imidazo[1,2-b]pyridazin-3-yl]pyridin-2-yl}-N′-propylurea] | 219 to 220 °C
19 | CC(C)NC(=O)Nc1cc(-c2c(-c3ccc(F)cc3)nc3cccnn23)ccn1 [Example Compound 28-10, N-{4-[2-(4-fluorophenyl)imidazo[1,2-b]pyridazin-3-yl]pyridin-2-yl}-N′-isopropylurea] | 222 to 223 °C
20 | CCN(CC)C(=O)Nc1cc(-c2c(-c3cccc(C)c3)nc3cccnn23)ccn1 [Example Compound 32-1, N,N-diethyl-N′-{4-[2-(3-methylphenyl)imidazo[1,2-b]pyridazin-3-yl]pyridin-2-yl}urea] | 166 to 167 °C
21 | Cc1cccc(-c2nc3cccnn3c2-c2ccnc(NC(=O)N3CCc4ccccc4C3)c2)c1 [Example Compound 32-2, N-{4-[2-(3-methylphenyl)imidazo[1,2-b]pyridazin-3-yl]pyridin-2-yl}-3,4-dihydroisoquinoline-2-(1H)carboxamide] | 122 to 124 °C
22 | Cc1cc(-c2nc3c(C)cc(Cl)nn3c2-c2ccnc(N)c2)ccc1F [Example Compound 36-1, 4-[6-chloro-2-(4-fluoro-3-methylphenyl)-8-methylimidazo[1,2-b]pyridazin-3-yl]-2-pyridylamine] | 218 to 219 °C
23 | Cc1cc(-c2nc3cc(C(C)(C)C)c(Cl)nn3c2-c2ccnc(N)c2)ccc1F [Example Compound 36-2, 4-[7-tert-butyl-6-chloro-2-(4-fluoro-3-methylphenyl)imidazo[1,2-b]pyridazin-3-yl]-2-pyridylamine] | 232 to 233 °C
24 | COc1cc(Cl)nn2c(-c3ccnc(N)c3)c(-c3ccc(F)c(C)c3)nc12 [Example Compound 36-3, 4-[6-chloro-2-(4-fluoro-3-methylphenyl)-8-methoxyimidazo[1,2-b]pyridazin-3-yl]-2-pyridylamine] | 200 to 201 °C
25 | CSc1cc(Cl)nn2c(-c3ccnc(N)c3)c(-c3ccc(F)c(C)c3)nc12 [Example Compound 36-4, 4-[6-chloro-2-(4-fluoro-3-methylphenyl)-8-(methylthio)imidazo[1,2-b]pyridazin-3-yl]-2-pyridylamine] | 237 to 238 °C
26 | Cc1cccc(-c2nc3cccnn3c2-c2ccnc(N)n2)c1 [Example Compound 37-1, 4-[2-(3-methylphenyl)imidazo[1,2-b]pyridazin-3-yl]-2-pyrimidinamine] | 250 to 251 °C
27 | Cc1cc(-c2nc3c(C)ccnn3c2-c2ccnc(N)c2)ccc1F [Example Compound 37-2, 4-[2-(4-fluoro-3-methylphenyl)-8-methylimidazo[1,2-b]pyridazin-3-yl]-2-pyridylamine] | 212 to 213 °C
28 | Cc1cc(-c2nc3cc(C(C)(C)C)cnn3c2-c2ccnc(N)c2)ccc1F [Example Compound 37-3, 4-[7-tert-butyl-2-(4-fluoro-3-methylphenyl)imidazo[1,2-b]pyridazin-3-yl]-2-pyridylamine] | 212 to 213 °C
29 | COc1ccnn2c(-c3ccnc(N)c3)c(-c3ccc(F)c(C)c3)nc12 [Example Compound 37-4, 4-[2-(4-fluoro-3-methylphenyl)-8-methoxyimidazo[1,2-b]pyridazin-3-yl]-2-pyridylamine] | 219 to 220 °C
30 | Cc1cccc(-c2nc3cccnn3c2-c2ccnc(NCC(C)(C)C)c2)c1 [Example compound 6-18, N-(2,2-dimethylpropyl)-4-[2-(3-methylphenyl)imidazo[1,2-b]pyridazin-3-yl]pyridin-2-amine] | 157 to 158 °C
31 | CCC(CC)Nc1cc(-c2c(-c3cccc(C)c3)nc3cccnn23)ccn1 [Example compound 6-20, N-(1-ethylpropyl)-4-[2-(3-methylphenyl)imidazo[1,2-b]pyridazin-3-yl]pyridin-2-amine] | 155 to 156 °C
32 | COc1ccc(C(=O)Nc2cc(-c3c(-c4cccc(C)c4)nc4cccnn34)ccn2)cc1 [Example compound 20-2, 4-methoxy-N-{4-[2-(3-methylphenyl)imidazo[1,2-b]pyridazin-3-yl]pyridin-2-yl}benzamide] | 177 to 178 °C
